Data from PMC9721373 (Antiviral Research, 2022).
Where a name gives a salt, the structure may show the parent alone. Read-outs that look alike come from different tables or passages of the source.

Columns and labels:
rVSVΔG-GFP/SARS2-S [1] = experiment: microbe, parasite or virus in culture; type: cell-based; settings: for rVSVΔG-GFP/SARS2-S GFP (%): 10 μM, HEK293T/ACE2, 16 hpi, GFP-positive cells, vehicle-treated = 100%; for activity at 10 µM: Severe acute respiratory syndrome coronavirus 2, HEK-293T, 16 h, read-out: rVSVΔG-GFP/SARS2-S GFP (%)
rVSVΔG-GFP/VSVG = experiment: microbe, parasite or virus in culture; type: cell-based; settings: for activity at 10 µM: Vesicular stomatitis virus, HEK-293T, 16 h, read-out: rVSVΔG-GFP/VSVG GFP (%)
[2] = target: SARS2-S–NRP-1 binding (rS1 / rNRP-1) (Homo sapiens, UniProt O14786)
SARS2-S–NRP-1 binding (rS1 / rNRP-1), sequence (O14786 22-856): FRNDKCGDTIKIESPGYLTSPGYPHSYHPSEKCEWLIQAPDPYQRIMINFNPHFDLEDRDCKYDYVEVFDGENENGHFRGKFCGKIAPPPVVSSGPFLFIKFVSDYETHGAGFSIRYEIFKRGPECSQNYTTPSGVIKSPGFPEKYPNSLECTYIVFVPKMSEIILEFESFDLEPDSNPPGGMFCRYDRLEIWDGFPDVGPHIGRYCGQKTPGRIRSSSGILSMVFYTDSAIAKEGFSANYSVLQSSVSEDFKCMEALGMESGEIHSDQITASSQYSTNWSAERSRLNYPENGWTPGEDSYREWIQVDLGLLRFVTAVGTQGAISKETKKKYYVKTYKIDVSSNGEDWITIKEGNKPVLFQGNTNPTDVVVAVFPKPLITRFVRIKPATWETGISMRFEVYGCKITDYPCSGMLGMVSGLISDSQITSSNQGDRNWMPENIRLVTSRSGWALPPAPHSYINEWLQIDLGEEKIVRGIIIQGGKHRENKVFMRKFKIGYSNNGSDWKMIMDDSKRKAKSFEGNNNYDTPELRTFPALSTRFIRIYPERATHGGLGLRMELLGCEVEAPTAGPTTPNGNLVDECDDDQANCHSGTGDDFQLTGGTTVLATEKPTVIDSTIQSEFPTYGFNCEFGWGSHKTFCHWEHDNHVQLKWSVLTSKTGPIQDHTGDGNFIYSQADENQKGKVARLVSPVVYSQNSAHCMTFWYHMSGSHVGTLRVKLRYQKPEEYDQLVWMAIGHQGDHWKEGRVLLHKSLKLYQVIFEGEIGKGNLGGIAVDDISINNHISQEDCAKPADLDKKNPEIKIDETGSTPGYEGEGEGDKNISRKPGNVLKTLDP

rVSVΔG-GFP/SARS2-S [3] = test system: rVSVΔG-GFP/SARS2-S
VeroE6/TMPRSS2 cells = settings: 10 μM, 17.5 h
rVSVΔG-GFP/SARS2-S [4] = experiment: microbe, parasite or virus in culture; settings: Severe acute respiratory syndrome coronavirus 2, HEK-293T
purified ACE2 = settings: read-out: dissociation constant (KD), ref Lu et al., 2021; cited from earlier work
[5] = 10 μM, HEK293T/ACE2, 16 hpi, GFP-positive cells, vehicle-treated = 100%

| SMILES | activity at 10 µM (rVSVΔG-GFP/SARS2-S [1]) | activity at 10 µM (rVSVΔG-GFP/VSVG) | rVSVΔG-GFP/SARS2-S Hoechst (%) (HEK293T/ACE2 cells; human) | rVSVΔG-GFP/VSVG Hoechst (%) (HEK293T/ACE2 cells; human) | also measured |
| --- | --- | --- | --- | --- | --- |
| C=CC(=O)Nc1cc(Nc2nccc(-c3cn(C)c4ccccc34)n2)c(OC)cc1N(C)CCN(C)C.CS(=O)(=O)O [AZD-9291 mesylate] |  |  |  |  | rVSVΔG-GFP/SARS2-S GFP (%) (rVSVΔG-GFP/SARS2-S [1]): 5.36%; rVSVΔG-GFP/VSVG GFP (%) (rVSVΔG-GFP/VSVG; [5]): 112.06%; rVSVΔG-GFP/SARS2-S Hoechst (%) (HEK293T/ACE2 cells): 98.67%; rVSVΔG-GFP/VSVG Hoechst (%) (HEK293T/ACE2 cells): 98.67% |
| CC(CN(C)C)CN1c2ccccc2Sc2ccccc21 (stereo not shown) [Alimemazine tartrate] |  |  |  |  | NRP1–S1 Binding (Normalized signal intensity) [2]: inhibited; SI (CC50/EC50) (rVSVΔG-GFP/SARS2-S [3]): 12.2; VeroE6/TMPRSS2 cell viability (VeroE6/TMPRSS2 cells): did not affect; EC50 (rVSVΔG-GFP/SARS2-S [4]): 2.42 µM |
| Clc1ccc2c(c1)C(N1CCNCC1)=Nc1ccccc1O2 [Amoxapine] | 23.7% | 116% | 102.06% | 99.31% |  |
| CN1CC2c3ccccc3Oc3ccc(Cl)cc3C2C1 (stereo not shown) [Asenapine Maleate, Asenapine maleate] |  |  | 98.20% | 95.98% |  |
| CC[C@H]1OC(=O)[C@H](C)[C@@H](O[C@H]2C[C@@](C)(OC)[C@@H](O)[C@H](C)O2)[C@H](C)[C@@H](O[C@@H]2O[C@H](C)C[C@H](N(C)C)[C@H]2O)[C@](C)(O)C[C@@H](C)CN(C)[C@H](C)[C@@H](O)[C@]1(C)O [Azithromycin dihydrate] |  |  | 100.22% | 101.30% |  |
| Cc1c(-c2ccc(O)cc2)n(Cc2ccc(OCCN3CCCCCC3)cc2)c2ccc(O)cc12 [Bazedoxifene acetate] |  |  | 88.96% | 102.51% |  |
| CN(C)CCCN1c2ccccc2Sc2ccc(Cl)cc21 [Chlorpromazine hydrochloride] |  |  |  | 97.98% | Kd (purified ACE2): 13.8 µM |
| C[C@@H](NCCCc1cccc(C(F)(F)F)c1)c1cccc2ccccc12 [Cinacalcet hydrochloride] |  |  | 97.33% | 95.94% |  |
| CN1CCC[C@@H]1CCO[C@](C)(c1ccccc1)c1ccc(Cl)cc1 [Clemastine fumarate] | 12.5% | 105% | 106.94% | 101.47% |  |
| CCCCc1oc2ccc(NS(C)(=O)=O)cc2c1C(=O)c1ccc(OCCCN(CCCC)CCCC)cc1 [Dronedarone hydrochloride] |  |  | 99.72% | 101.34% |  |
| NC(N)=NCCC[C@H](NC(=O)c1sccc1NS(=O)(=O)c1cccc2nsnc12)C(=O)O [EG00229] |  |  |  |  | concentration required to inhibit SARS2-S–NRP-1 binding [2]: 1 mM |
| OCCN1CCN(CCCN2c3ccccc3Sc3ccc(C(F)(F)F)cc32)CC1 [Fluphenazine hydrochloride, Fluphenazine dihydrochloride] | 19.3% | 106% | 103.35% | 100.59% |  |
| Cc1ccc(NC(=O)c2ccc(CN3CCN(C)CC3)cc2)cc1Nc1nccc(-c2cccnc2)n1 [Imatinib Mesylate (STI571), Imatinib Mesylate] | 20.8% |  | 96.53% | 94.49% | rVSVΔG-GFP/VSVG GFP (%) (rVSVΔG-GFP/VSVG): 103.15% |
| CNCCC=C1c2ccccc2CCc2ccccc21 [Nortriptyline hydrochloride] | 17.4% | 91.7% | 81.23% | 76.77% |  |
| Fc1ccc([C@@H]2CCNC[C@H]2COc2ccc3c(c2)OCO3)cc1 [Paroxetine hydrochloride] |  |  | 102.73% | 98.03% |  |
| OCCN1CCN(CCCN2c3ccccc3Sc3ccc(Cl)cc32)CC1 [Perphenazine] |  |  |  | 86.64% |  |
| CN1CCN(CCCN2c3ccccc3Sc3ccc(Cl)cc32)CC1 [Prochlorperazine Maleate, Prochlorperazine dimaleate] | 16.6% | 131% | 97.05% | 93.26% |  |
| O=C(c1ccc(OCCN2CCCCC2)cc1)c1c(-c2ccc(O)cc2)sc2cc(O)ccc12 [Raloxifene hydrochloride] |  |  | 101.70% | 103.53% |  |
| CN[C@H]1CC[C@@H](c2ccc(Cl)c(Cl)c2)c2ccccc21 [Sertraline hydrochloride] | 15.8% | 105% | 101.27% | 97.33% |  |
| CC/C(=C(\c1ccccc1)c1ccc(OCCN(C)C)cc1)c1ccccc1 [Tamoxifen citrate] | 16.3% | 106% | 99.67% | 97.14% |  |
| CSc1ccc2c(c1)N(CCC1CCCCN1C)c1ccccc1S2 (stereo not shown) [Thioridazine hydrochloride] | 15.8% | 119% | 98.59% | 95.38% |  |
| CN(C)CCOc1ccc(/C(=C(/CCCl)c2ccccc2)c2ccccc2)cc1 [Toremifene citrate] |  |  | 99.98% | 98.74% | rVSVΔG-GFP/SARS2-S GFP (%) (rVSVΔG-GFP/SARS2-S [1]): 8.32%; rVSVΔG-GFP/VSVG GFP (%) (rVSVΔG-GFP/VSVG; [5]): 109.35% |
| CN(C)CCOc1ccc(/C(=C(/CCCl)c2ccccc2)c2ccccc2)cc1 [Toremifene] |  |  | 101.27% | 90.44% | rVSVΔG-GFP/SARS2-S GFP (%) (rVSVΔG-GFP/SARS2-S [1]): 21.77%; rVSVΔG-GFP/VSVG GFP (%) (rVSVΔG-GFP/VSVG; [5]): 142.24% |
| CN1CCN(CCCN2c3ccccc3Sc3ccc(C(F)(F)F)cc32)CC1 [Trifluoperazine dihydrochloride] |  |  | 107.56% | 97.29% | Kd (purified ACE2): 33.3 µM |
| CC(CN(C)C)CN1c2ccccc2CCc2ccccc21 (stereo not shown) [Trimipramine maleate] |  |  |  | 99.90% |  |
| COc1cc2c(Nc3ccc(Br)cc3F)ncnc2cc1OCC1CCN(C)CC1 [Vandetanib (ZD6474), Vandetanib] |  |  | 104.11% | 99.04% |  |
